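Each compound was tested at five concentrations against cells in 96-well plates for 48 hours. GI50: concentration for 50% inhibition of growth.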 The source made the active and inactive calls. No stated cut-off is given here; in the data, active = GI50 up to about 1.1 µM and inactive = higher.
Columns and labels:
Assay in all cases: DTP human tumour cell line panel, 48 h
A498 = system: A498
A549 = system: A549
HCC 2998 = system: HCC 2998
K562 = system: K562
MOLT-4 = system: MOLT-4
Malme-3M = system: Malme-3M
NCI-H23 = system: NCI-H23
NCI-H522 = system: NCI-H522
SF-295 = system: SF-295
SF-539 = system: SF-539
SNB-19 = system: SNB-19
SR = system: SR
SW-620 = system: SW-620
TK-10 = system: TK-10
U-251 = system: U-251
UO-31 = system: UO-31
SK-MEL-2 = system: SK-MEL-2

Row | SMILES | GI50 (A498) | GI50 (A549) | GI50 (HCC 2998) | GI50 (K562) | GI50 (MOLT-4) | GI50 (Malme-3M) | GI50 (NCI-H23) | GI50 (NCI-H522) | GI50 (SF-295) | GI50 (SF-539) | GI50 (SNB-19) | GI50 (SR) | GI50 (SW-620) | GI50 (TK-10) | GI50 (U-251) | GI50 (UO-31) | GI50 (SK-MEL-2)
1 | Cc1ccc(S(=O)OC2C3CC4CC(C3)CC2C4)cc1 (configuration not stated) | > 100 µM (inactive) | > 100 µM (inactive) | > 100 µM (inactive) | > 100 µM (inactive) | > 100 µM (inactive) | > 100 µM (inactive) | > 100 µM (inactive) | > 100 µM (inactive) | > 100 µM (inactive) | > 100 µM (inactive) | > 100 µM (inactive) | > 100 µM (inactive) | > 100 µM (inactive) | > 100 µM (inactive) | > 100 µM (inactive) | > 100 µM (inactive) | 
2 | CCCCN(CCCC)CC(C(=O)Nc1ccc([N+](=O)[O-])cc1[N+](=O)[O-])/C(C)=N\NC(=O)c1ccncc1 (configuration not stated) | > 100 µM (inactive) | > 100 µM (inactive) | > 100 µM (inactive) | > 100 µM (inactive) | > 100 µM (inactive) | > 100 µM (inactive) | > 100 µM (inactive) | > 100 µM (inactive) | > 100 µM (inactive) | > 100 µM (inactive) | > 100 µM (inactive) |  | > 100 µM (inactive) | > 100 µM (inactive) | > 100 µM (inactive) | > 100 µM (inactive) | > 100 µM (inactive)
3 | CN(C(=O)c1ccc(Cl)cc1)C(=S)N1CCN(c2ccccn2)CC1 |  | > 100 µM (inactive) |  | > 100 µM (inactive) | > 100 µM (inactive) | > 100 µM (inactive) | > 100 µM (inactive) | > 100 µM (inactive) | > 100 µM (inactive) | > 100 µM (inactive) | > 100 µM (inactive) | > 100 µM (inactive) | > 100 µM (inactive) | > 100 µM (inactive) | > 100 µM (inactive) | > 100 µM (inactive) | > 100 µM (inactive)
4 | C=C1C(=O)OC2CC3(C)C=CC(=O)C(=C)C3CC12 (configuration not stated) | 7.46 µM (inactive) | 5.62 µM (inactive) | 2.6 µM (inactive) | 1.71 µM (inactive) | 1.03 µM (active) | 1.99 µM (inactive) | 1.69 µM (inactive) | 0.47 µM (active) | 13.9 µM (inactive) | 1.53 µM (inactive) | 8.55 µM (inactive) | 0.938 µM (active) | 1.04 µM (active) | 2.15 µM (inactive) | 3.79 µM (inactive) | 1.75 µM (inactive) | 1.67 µM (inactive)
5 | CC(C)(C)C(C#N)(C#N)c1ccc(C(C#N)(C#N)C(C)(C)C)nn1 |  | > 100 µM (inactive) | > 100 µM (inactive) | > 100 µM (inactive) | > 100 µM (inactive) | > 100 µM (inactive) | > 100 µM (inactive) | > 100 µM (inactive) | > 100 µM (inactive) | > 100 µM (inactive) | 63.4 µM (inactive) |  | > 100 µM (inactive) | > 100 µM (inactive) |  | > 100 µM (inactive) | > 100 µM (inactive)
6 | COc1ccc(CNc2nc3c(NC(C)=O)cc(C(F)(F)F)cc3nc2-c2ccccc2)cc1OC | > 100 µM (inactive) | 47.9 µM (inactive) | > 100 µM (inactive) | > 100 µM (inactive) | > 100 µM (inactive) | 95.3 µM (inactive) | 59 µM (inactive) | 2.69 µM (inactive) | 50 µM (inactive) | 25.2 µM (inactive) | 45.6 µM (inactive) |  | 77.3 µM (inactive) | 32.1 µM (inactive) | 93.1 µM (inactive) | 7.45 µM (inactive) | 57.7 µM (inactive)
7 | COC(=O)C1=Cc2c(cc(OC)c(OC)c2OC)[C@H](c2ccc(OC)c(OC)c2OC)C1C(=O)OC (some centres not stated) | > 100 µM (inactive) | > 100 µM (inactive) | > 100 µM (inactive) | > 100 µM (inactive) | 83 µM (inactive) | > 100 µM (inactive) | > 100 µM (inactive) | 89.9 µM (inactive) | 65.9 µM (inactive) | > 100 µM (inactive) | > 100 µM (inactive) | 46.7 µM (inactive) | > 100 µM (inactive) | > 100 µM (inactive) | > 100 µM (inactive) | 47.1 µM (inactive) | 
8 | COc1ccccc1NC(=O)CC(=O)N/N=C/c1ccc(N(CCC#N)S(=O)(=O)c2ccccc2)cc1 |  | > 100 µM (inactive) | > 100 µM (inactive) | > 100 µM (inactive) | > 100 µM (inactive) | > 100 µM (inactive) | > 100 µM (inactive) | > 100 µM (inactive) | > 100 µM (inactive) |  | > 100 µM (inactive) | > 100 µM (inactive) | > 100 µM (inactive) | > 100 µM (inactive) | > 100 µM (inactive) | > 100 µM (inactive) | > 100 µM (inactive)
9 | C=CC(=O)N1C/C(=C\c2ccc(Cl)c(Cl)c2)C(=O)/C(=C/c2ccc(Cl)c(Cl)c2)C1 | 0.63 µM (active) |  | 0.204 µM (active) | 0.0404 µM (active) | 0.103 µM (active) |  | 0.2 µM (active) | 0.149 µM (active) | 0.233 µM (active) | 0.181 µM (active) |  | 0.0259 µM (active) | 0.0607 µM (active) | 0.501 µM (active) | 0.0226 µM (active) | 0.207 µM (active) | 0.42 µM (active)
10 | Cn1c2ccccc2c2cc(-c3ccccc3)c3c(c21)C(=O)c1ccccc1C3=O | > 100 µM (inactive) | 20.4 µM (inactive) | 48.8 µM (inactive) | 21.4 µM (inactive) | 5.04 µM (inactive) | 22.3 µM (inactive) | 5.79 µM (inactive) | 15.2 µM (inactive) | 21.5 µM (inactive) | 22.9 µM (inactive) | 61.1 µM (inactive) | 4.79 µM (inactive) | 18.8 µM (inactive) | 48.3 µM (inactive) |  | 11 µM (inactive) | 19.5 µM (inactive)
11 | CN(C)c1ccc(C(=C2C=CC(=[N+](C)C)C=C2)c2ccc(N(C)C)cc2)cc1 [GENTIAN VIOLET] |  | 0.0395 µM (active) | 0.216 µM (active) | 0.0327 µM (active) | 0.144 µM (active) | 0.245 µM (active) | 0.0594 µM (active) | 0.298 µM (active) | 0.0402 µM (active) | 0.258 µM (active) | 0.347 µM (active) | 0.211 µM (active) |  |  | 0.0354 µM (active) | 0.318 µM (active) | 0.207 µM (active)
12 | COc1cccc(/C(C=O)=C(\Cl)c2ccc(OC)c(OC)c2)c1 |  | 19.5 µM (inactive) | 16.1 µM (inactive) | 13.6 µM (inactive) | 13.2 µM (inactive) | 15.6 µM (inactive) | 12.2 µM (inactive) | 10.3 µM (inactive) | 15.2 µM (inactive) | 16.6 µM (inactive) | 3.94 µM (inactive) | 13.5 µM (inactive) | 15.9 µM (inactive) | 28.1 µM (inactive) | 13.9 µM (inactive) | 14.5 µM (inactive) | 19.2 µM (inactive)
13 | COc1ccc2c(c1OC)C(=O)c1cnccc1C2=O |  | > 100 µM (inactive) | > 100 µM (inactive) | > 100 µM (inactive) | > 100 µM (inactive) | > 100 µM (inactive) | > 100 µM (inactive) | > 100 µM (inactive) | > 100 µM (inactive) | > 100 µM (inactive) | > 100 µM (inactive) | > 100 µM (inactive) | > 100 µM (inactive) | > 100 µM (inactive) | > 100 µM (inactive) | > 100 µM (inactive) | > 100 µM (inactive)
14 | Cc1c(Cl)ccc2c1NC(=O)C2(O)CC(=O)c1ccc2ccccc2c1 (configuration not stated) | > 100 µM (inactive) | 53.3 µM (inactive) | > 100 µM (inactive) | 28.6 µM (inactive) | 18.6 µM (inactive) | > 100 µM (inactive) | 28.2 µM (inactive) | 24.7 µM (inactive) | 88.3 µM (inactive) | 49.8 µM (inactive) | 45.8 µM (inactive) |  | 47.8 µM (inactive) | > 100 µM (inactive) | 71.6 µM (inactive) | 22.4 µM (inactive) | > 100 µM (inactive)
15 | Cc1ccc(/C=C/C(=O)c2sc(C(N)=S)nc2C)cc1 | > 100 µM (inactive) | > 100 µM (inactive) | > 100 µM (inactive) | > 100 µM (inactive) | > 100 µM (inactive) | > 100 µM (inactive) | > 100 µM (inactive) | > 100 µM (inactive) | > 100 µM (inactive) | > 100 µM (inactive) |  |  | > 100 µM (inactive) | > 100 µM (inactive) | > 100 µM (inactive) | > 100 µM (inactive) | > 100 µM (inactive)
16 | CN/N=C(\C(=O)Nc1ccc([N+](=O)[O-])cc1[N+](=O)[O-])C1NC(=O)NC1=O (configuration not stated) | > 100 µM (inactive) | > 100 µM (inactive) | > 100 µM (inactive) | > 100 µM (inactive) | > 100 µM (inactive) | > 100 µM (inactive) | > 100 µM (inactive) |  | > 100 µM (inactive) | > 100 µM (inactive) | > 100 µM (inactive) | > 100 µM (inactive) | 40.3 µM (inactive) | > 100 µM (inactive) | 27.9 µM (inactive) | > 100 µM (inactive) | > 100 µM (inactive)
17 | COC(=O)C1C(/C=C/c2ccoc2)ON2CCC[C@@H]12 (some centres not stated) |  | > 100 µM (inactive) | > 100 µM (inactive) |  |  | 33.6 µM (inactive) | > 100 µM (inactive) | > 100 µM (inactive) | > 100 µM (inactive) | > 100 µM (inactive) | > 100 µM (inactive) | > 100 µM (inactive) | > 100 µM (inactive) | > 100 µM (inactive) | > 100 µM (inactive) | > 100 µM (inactive) | > 100 µM (inactive)
